From patent publication US20050106305A1, “Beverage compositions comprising monatin and methods of making same” (Cargill, Inc., priority 2003, published 2005)
Where two headings read alike, the source gives them in different places.

What was measured:
[1] = Sensory evaluation of soft drinks (lemon/lime, orangeade, cola); format: in vivo; details: Cola; aspartame 550 ppm, sucralose 220 ppm, R,R monatin 45 ppm
Experimental: Beverages (cola, lemon-lime and orange) were formulated and sweetened with aspartame, sucralose or R,R monatin. Qualitative evaluation was carried out.
The term “throw” refers to dilution in water. For example, a throw of “1+4” means 1 part concentrate formulation to 4 parts water. Thus, if a concentrate formulation includes 0.021% wt/vol (i.e., 210 ppm) of R,R monatin, for example, a throw of 1+4 makes a diluted beverage containing 42 ppm (210 ppm/5) R,R monatin.
Final ready-to-drink beverages (after throw) contained sweetener concentrations as follows:
Evaluation of these soft drinks was carried out by a panel (n=6) of assessors who evaluated each set of drinks on separate tasting occasions.

[2] = Sensory stability of monatin and aspartame at pH 2.5, 3.0, 4.0 at 40° C.; format: physicochemical; details: for Rate constant (k) of sweetness loss / half-life: pseudo-first order assumed; for SEV / Retention of Sweetness: stored 40° C., monatin ~55 ppm, aspartame 400 ppm; for half-life: phosphate/citrate buffer, read-out: Half-life (t½) of sweetness loss (converted)
Experimental: The sensory stability of monatin solutions prepared at pH 2.5, 3.0 and 4.0 and stored at 40° C. was monitored for 100 days. Loss of sweetness from these solutions was compared with the losses of sweetness from aspartame solutions prepared and stored under identical conditions.
The sensory stability of monatin (8% SEV, ˜55 ppm, synthetic blend containing approximately 96% of the 2R,4R/2S, 4S enantiometric pair and 4% of the 2R,4S/2S,4R enantiometric pair) in phosphate/citrate buffers having a pH of 2.5, 3.0, and 4.0 was examined after storage at 40° C. The stability of monatin was compared to that of aspartame (400 ppm) in the same buffers. Three sucrose reference solutions were prepared in the same phosphate/citrate buffers as the monatin and aspartame solutions. All prepared solutions were stored in the dark.
Buffer compositions: pH 2.5 Phosphoric acid (75% solution) 0.127% (w/v) Tri-sodium citrate monohydrate 0.005% (w/v) • pH 3.0 Phosphoric acid (75% solution) 0.092% (w/v) Tri-sodium citrate monohydrate 0.031% (w/v) • pH 4.0 Phosphoric acid (75% solution) 0.071% (w/v) Tri-sodium citrate monohydrate 0.047% (w/v)
The sweetness of each sweetener relative to sucrose was assessed in duplicate by a panel (n=8) of trained sensory evaluators experienced in the sweetness estimation procedure. All samples (in the same buffers) were served in duplicate at a temperature of 22° C.±1° C. Monatin (test) solutions, coded with 3 digit random number codes were presented individually to panelists, in random order. Sucrose reference standards, ranging from 4.0-10.0% (w/v) sucrose, increasing in steps of 0.5% (w/v) sucrose were also provided. Panelists were asked to estimate sweetness by comparing the sweetness of the test solution to the sucrose standards. This was carried out by taking 3 sips of the test solution, followed by a sip of water, followed by 3 sips of sucrose standard followed by a sip of water, etc. Panelists were encouraged to estimate the sweetness to one decimal place, e.g., 6.8, 8.5. A five minute rest period was imposed between evaluating the test solutions. Panelists were also asked to rinse well and eat a cracker to reduce any potential carry over effects.
If a pseudo-first order breakdown reaction is assumed, a plot of logn percentage retention versus time (logn%RTN v. t) allows estimation of the half-life (t½) and rate constant (k) of sweetness loss under any given set of conditions. In so doing, the kinetics of monatin and aspartame sweetness loss may be summarized as follows in Table 25.

[3] = Taste profiling of lemon/lime carbonates and colas; format: in vivo; details: HFCS 10%, aspartame 500 ppm, sucralose 200 ppm, blends 30.8 ppm/5.0%; for Average Score: score 1, poor-5, good, sucrose 10%
Experimental: Cola and lemon/lime beverages were prepared using the following formulations and sweetened with sucrose, HFCS (55% fructose), aspartame, sucralose, monatin (racemic mix described in Example 14), monatin/sucrose, or monatin/HFCS. One part of syrup was added to 5.5 parts carbonated water and evaluated.
Assessments were carried out ‘double blind’ by a panel of trained tasters. The sucrose-sweetened product was identified as the control and all other products randomly coded. Panelists were asked to assess the randomly coded sample relative to the control for the following attributes:
Panelists also were asked assign a score (1; poor-5; good) for the quality of the sweetener system. A summary of the comments generated together with the average score awarded is presented in Tables 12 and 13 for lemon/lime carbonates and colas, respectively. […] Blends of monatin/carbohydrate rated higher. In the cola, monatin was similar to aspartame.

[4] = cola, sucrose 10% (control), monatin 80 ppm
[5] = lemon/lime carbonate, sucrose 10% (control), monatin 67 ppm

Which results are given for NC(CC(O)(Cc1c[nH]c2ccccc12)C(=O)O)C(=O)O (racemic) [Monatin, 2-hydroxy-2-(indol-3-ylmethyl)-4-aminoglutaric acid]?
Comments (sensory evaluation) [1]: Overall, judged quite similar qualitatively; Sweetness Retained ([2]; after 100 days storage at pH 2.5 at 40° C.): 29%; Sweetness Retained ([2]; after 100 days storage at pH 3.0 at 40° C.): 58%; Sweetness Retained ([2]; after 100 days storage at pH 4.0 at 40° C.): 78%; Rate constant (k) of sweetness loss ([2]; pH 2.5, 40° C.): 0.011 day⁻¹; SEV ([2]; pH 2.5 buffer, day 0): 7.35 % sucrose; Retention of Sweetness ([2]; pH 2.5 buffer, day 1): 93.3%; SEV ([2]; pH 2.5 buffer, day 1): 6.86 % sucrose; Retention of Sweetness ([2]; pH 2.5 buffer, day 2): 91.2%; SEV ([2]; pH 2.5 buffer, day 2): 6.70 % sucrose; Retention of Sweetness ([2]; pH 2.5 buffer, day 3): 88.4%; SEV ([2]; pH 2.5 buffer, day 3): 6.50 % sucrose; Retention of Sweetness ([2]; pH 2.5 buffer, day 4): 85.2%; SEV ([2]; pH 2.5 buffer, day 4): 6.26 % sucrose; Retention of Sweetness ([2]; pH 2.5 buffer, day 7): 82.7%; SEV ([2]; pH 2.5 buffer, day 7): 6.08 % sucrose; Retention of Sweetness ([2]; pH 2.5 buffer, day 8): 81.4%; SEV ([2]; pH 2.5 buffer, day 8): 5.98 % sucrose; Retention of Sweetness ([2]; pH 2.5 buffer, day 9): 80.1%; SEV ([2]; pH 2.5 buffer, day 9): 5.89 % sucrose; Retention of Sweetness ([2]; pH 2.5 buffer, day 11): 78.6%; SEV ([2]; pH 2.5 buffer, day 11): 5.78 % sucrose; Retention of Sweetness ([2]; pH 2.5 buffer, day 50): 62.7%; SEV ([2]; pH 2.5 buffer, day 50): 4.61 % sucrose; Retention of Sweetness ([2]; pH 2.5 buffer, day 100): 28.6%; SEV ([2]; pH 2.5 buffer, day 100): 2.10 % sucrose; Rate constant (k) of sweetness loss ([2]; pH 3.0, 40° C.): 0.006 day⁻¹; SEV ([2]; pH 3.0 buffer, day 0): 7.08 % sucrose; Retention of Sweetness ([2]; pH 3.0 buffer, day 1): 99.6%; SEV ([2]; pH 3.0 buffer, day 1): 7.05 % sucrose; Retention of Sweetness ([2]; pH 3.0 buffer, day 2): 93.2%; SEV ([2]; pH 3.0 buffer, day 2): 6.60 % sucrose; Retention of Sweetness ([2]; pH 3.0 buffer, day 3): 91.4%; SEV ([2]; pH 3.0 buffer, day 3): 6.47 % sucrose; Retention of Sweetness ([2]; pH 3.0 buffer, day 4): 91.6%; SEV ([2]; pH 3.0 buffer, day 4): 6.49 % sucrose; Retention of Sweetness ([2]; pH 3.0 buffer, day 7): 85.3%; SEV ([2]; pH 3.0 buffer, day 7): 6.04 % sucrose; Retention of Sweetness ([2]; pH 3.0 buffer, day 8): 83.8%; SEV ([2]; pH 3.0 buffer, day 8): 5.93 % sucrose; Retention of Sweetness ([2]; pH 3.0 buffer, day 9): 83.1%; SEV ([2]; pH 3.0 buffer, day 9): 5.88 % sucrose; Retention of Sweetness ([2]; pH 3.0 buffer, day 11): 83.1%; SEV ([2]; pH 3.0 buffer, day 11): 5.88 % sucrose; Retention of Sweetness ([2]; pH 3.0 buffer, day 50): 72.3%; SEV ([2]; pH 3.0 buffer, day 50): 5.12 % sucrose; Retention of Sweetness ([2]; pH 3.0 buffer, day 100): 57.9%; SEV ([2]; pH 3.0 buffer, day 100): 4.10 % sucrose; Rate constant (k) of sweetness loss ([2]; pH 4.0, 40° C.): 0.003 day⁻¹; SEV ([2]; pH 4.0 buffer, day 0): 7.40 % sucrose; Retention of Sweetness ([2]; pH 4.0 buffer, day 3): 95.7%; SEV ([2]; pH 4.0 buffer, day 3): 7.08 % sucrose; Retention of Sweetness ([2]; pH 4.0 buffer, day 8): 86.8%; SEV ([2]; pH 4.0 buffer, day 8): 6.42 % sucrose; Retention of Sweetness ([2]; pH 4.0 buffer, day 11): 85.9%; SEV ([2]; pH 4.0 buffer, day 11): 6.36 % sucrose; Retention of Sweetness ([2]; pH 4.0 buffer, day 17): 82.4%; SEV ([2]; pH 4.0 buffer, day 17): 6.10 % sucrose; Retention of Sweetness ([2]; pH 4.0 buffer, day 24): 84.5%; SEV ([2]; pH 4.0 buffer, day 24): 6.25 % sucrose; Retention of Sweetness ([2]; pH 4.0 buffer, day 50): 82.9%; SEV ([2]; pH 4.0 buffer, day 50): 6.14 % sucrose; Retention of Sweetness ([2]; pH 4.0 buffer, day 100): 78.4%; SEV ([2]; pH 4.0 buffer, day 100): 5.80 % sucrose; half-life ([2]; pH 2.5, 40° C.): 65 days; half-life ([2]; pH 3.0, 40° C.): 115 days; half-life ([2]; pH 4.0, 40° C.): 230 days; Aftertaste [3, 4]: Some lingering; Mouthfeel [3, 4]: Thinner than control.; Aftertaste [3, 5]: Quite clean, slight; Mouthfeel [3, 5]: Slightly less; Sweetness Profile [3, 5]: Slight delay in onset -; Average Score ([3]; cola, monatin 80 ppm): 2.9; Average Score ([3]; lemon/lime carbonate, monatin 67 ppm): 4.0
